Experimental data: patent publication US9775904B2 (priority 2014, dated 2017)
Read-outs that look alike come from different tables or passages of the source.

Assays:
[1] = target: T1, human GLP-1 receptor (hGLP-1 R) (Homo sapiens, UniProt P43220); experiment: cAMP response of HEK-293 cells expressing human GLP-1 receptor (HTRF); format: cell-based; conditions: Table 6
T1 construct: expressed in transfected cells
Description: (§1) cAMP content of cells was determined using a kit from Cisbio Corp. (cat. no. 62AM4PEC) based on HTRF (Homogenous Time Resolved Fluorescence). For preparation, cells were split into T175 culture flasks and grown overnight to near confluency in medium (DMEM/10% FBS). Medium was then removed and cells washed with PBS lacking calcium and magnesium, followed by proteinase treatment with accutase (Sigma-Aldrich cat. no. A6964). Detached cells were washed and resuspended in assay buffer (1×HBSS; 20 mM HEPES, 0.1% BSA, 2 mM IBMX) and cellular density determined. They were then diluted to 400000 cells/ml and 25 μl-aliquots dispensed into the wells of 96-well plates. For measurement, 25 μl of test compound in assay buffer was added to the wells, followed by incubation for 30 minutes at room temperature.

[2] = target: T2, human glucagon receptor (hGlucagon R) (Homo sapiens, UniProt P47871); experiment: cAMP response of HEK-293 cells expressing human glucagon receptor (HTRF); format: cell-based; conditions: Table 6
T2 construct: expressed in transfected cells
Description: as §1

[3] = target: T3, human GIP receptor (hGIP-R) (Homo sapiens, UniProt P48546); experiment: cAMP response of HEK-293 cells expressing human GIP receptor (HTRF); format: cell-based; conditions: Table 6; read-out: EC50 hGIP-R
T3 construct: expressed in transfected cells
T3 sequence (P48546 22-466): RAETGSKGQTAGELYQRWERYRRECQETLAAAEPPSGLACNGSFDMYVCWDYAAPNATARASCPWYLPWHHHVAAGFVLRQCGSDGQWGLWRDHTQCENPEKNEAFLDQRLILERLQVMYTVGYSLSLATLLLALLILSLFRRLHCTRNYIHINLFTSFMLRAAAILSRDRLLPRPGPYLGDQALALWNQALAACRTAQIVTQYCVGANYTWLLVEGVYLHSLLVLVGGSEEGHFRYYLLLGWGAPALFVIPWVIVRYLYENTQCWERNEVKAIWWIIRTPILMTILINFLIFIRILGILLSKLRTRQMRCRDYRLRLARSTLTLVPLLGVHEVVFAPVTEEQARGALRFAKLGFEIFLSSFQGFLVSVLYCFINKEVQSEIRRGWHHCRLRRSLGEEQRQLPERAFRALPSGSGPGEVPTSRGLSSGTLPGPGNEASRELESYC
Description: as §1

[4] = Solubility testing in buffer (HPLC-UV); format: physicochemical
Description: Prior to the testing of solubility and stability of a peptide batch, its purity (HPLC-UV) was determined.
. Therefore, solutions from solid samples were prepared in different buffer systems with a concentration of 10 mg/mL compound based on the previously determined % purity. HPLC-UV was performed after 2 h of gentle agitation from the supernatant, which was obtained by 20 min of centrifugation at 4500 rpm.
[…]. This analysis also served as starting point (t0) for the stability testing.

[5] = Pharmacokinetic testing in mice, s.c.; format: in vivo; conditions: mouse, plasma, sc, 1 mg/kg s.c.
Description: (§2) Mice were dosed 1 mg/kg subcutaneously (s.c.). The mice were sacrified and blood samples were collected after 0.25, 0.5, 1, 2, 4, 8, 16 and 24 hours post application. Plasma samples were analyzed after protein precipitation via liquid chromatography mass spectrometry (LC/MS). PK parameters and half-life were calculated using WinonLin Version 5.2.1 (non-compartment model).

[6] = Pharmacokinetic testing in Göttinger minipigs, s.c.; format: in vivo; conditions: female, minipig, plasma, sc, Mini pigs, 0.1 mg/kg s.c.
Description: as §2, with “Female Göttinger minipigs were” for “Mice were”, “dosed 0.1” for “dosed 1”, “(s.c.). Blood” for “(s.c.). The mice were sacrified and blood”, “8, 24, 32, 48, 56” for “8, 16”, “and 72” for “and 24”

[7] = Acute effect on blood glucose in fed female DIO C57BL/6 mice; format: in vivo; conditions: 50 μg/kg s.c.; t=1, 2, 3, 4, 6 and 24 h post dosing; p<0.0001
Description: (§3) C57BL/6 Harlan mice are housed in groups in a specific pathogen-free barrier facility on a 12 h light/dark cycle with free access to water and standard or high-fat diet. After prefeeding on high-fat diet, mice are stratified to treatment groups (n=8), so that each group has similar mean body weight. An age-matched group with ad-libitum access to standard chow is included as standard control group. Before the experiment, mice are subcutaneously (s.c.) injected with vehicle solution and weighed for 3 days to acclimate them to the procedures.
1) Acute effect on blood glucose in fed female DIO mice: initial blood samples are taken just before first administration (s.c.) of vehicle (phosphate buffer solution) or the exendin-4 derivatives (dissolved in phosphate buffer), respectively. The volume of administration is 5 mL/kg. The animals have access to water and their corresponding diet during the experiment. Blood glucose levels are measured at t=0 h, t=1 h, t=2 h, t=3 h, t=4 h, t=6 h and t=24 h (method: Accu-Check glucometer). Blood sampling is performed by tail incision without anaesthesia.
(§4) Statistical analyses are performed with Everstat 6.0 by repeated measures two-way ANOVA and Dunnetts post-hoc analyses (glucose profile) and 1-way-ANOVA, followed by Dunnetts post-hoc test (body weight, body fat). Differences versus vehicle-treated DIO control mice are considered statistically significant at the p<0.05 level.
At predefined time points, more blood samples were taken to measure blood glucose and generate the blood glucose profile over 24 h.

[8] = Chronic effect on body weight and body fat in female DIO C57BL/6 mice, 4 weeks; format: in vivo; conditions: 50 μg/kg bid s.c.; for Day on which significant body weight decrease begins / Daily body weight compared to vehicle DIO control mice: 4 weeks; for Day on which significant body weight decrease begins: continuing through the end of the study; for Daily body weight compared to vehicle DIO control mice: p>0.0001 by the end of the study (so in the source); for Body fat change / Overall weight change: DIO mice, 4-week treatment, mean ± SEM; for Body fat change: NMR
Description: as §3
2) Chronic effect on body weight in female DIO mice: mice are treated once (s.c. in evening hours) or twice daily (s.c. in the morning and in the evening), respectively, at the beginning and the end of the light phase with either vehicle or exendin-4 derivatives for 4 weeks. Body weight is recorded daily. Two days before start of treatment and on day 26, total fat mass is measured by nuclear magnetic resonance (NMR).
as §4
Body weight was recorded daily, and body fat content was determined before the start and after 4 weeks of treatment. […] These changes resulted from a decrease in body fat, as shown by the absolute changes in body fat content (Table 10, FIG. 3).
Body weight was recorded daily, and body fat content was determined before the start and after 4 weeks of treatment.

[9] = pH 4.5, target concentration 10 mg/ml, read-out: solubility [mg/ml] pH 4.5
[10] = pH 7.4, target concentration 10 mg/ml, read-out: solubility [mg/ml] pH 7.4

T2 sequence (P47871 26-477): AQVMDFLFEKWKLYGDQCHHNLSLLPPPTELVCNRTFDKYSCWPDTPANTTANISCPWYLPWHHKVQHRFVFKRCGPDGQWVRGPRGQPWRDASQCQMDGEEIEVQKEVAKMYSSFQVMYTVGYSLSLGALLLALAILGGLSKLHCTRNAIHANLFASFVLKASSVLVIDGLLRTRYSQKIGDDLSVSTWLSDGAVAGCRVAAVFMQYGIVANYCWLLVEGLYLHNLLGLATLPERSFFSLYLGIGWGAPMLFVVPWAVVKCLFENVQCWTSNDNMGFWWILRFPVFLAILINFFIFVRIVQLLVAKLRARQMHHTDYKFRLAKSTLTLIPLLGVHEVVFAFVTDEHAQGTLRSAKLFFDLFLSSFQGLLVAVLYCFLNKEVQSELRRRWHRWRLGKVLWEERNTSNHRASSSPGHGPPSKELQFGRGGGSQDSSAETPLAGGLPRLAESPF
T1 sequence (P43220 24-463): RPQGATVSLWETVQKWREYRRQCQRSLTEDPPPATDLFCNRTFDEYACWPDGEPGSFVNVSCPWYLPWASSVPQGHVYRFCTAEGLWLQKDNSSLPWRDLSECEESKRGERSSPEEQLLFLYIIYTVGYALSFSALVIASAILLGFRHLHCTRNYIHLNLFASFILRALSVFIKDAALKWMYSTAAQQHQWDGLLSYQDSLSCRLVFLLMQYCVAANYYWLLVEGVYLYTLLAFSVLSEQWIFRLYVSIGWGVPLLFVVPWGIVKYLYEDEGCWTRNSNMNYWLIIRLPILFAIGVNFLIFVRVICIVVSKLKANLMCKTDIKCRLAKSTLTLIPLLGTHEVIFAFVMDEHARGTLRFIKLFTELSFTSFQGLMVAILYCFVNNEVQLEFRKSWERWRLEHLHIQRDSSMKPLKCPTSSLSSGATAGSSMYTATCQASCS

SMILES	EC50 [1] [pM]	EC50 [2] [pM]	EC50 [3] [pM]	solubility at 2 h [4, 9] [mg/mL]	solubility at 2 h [4, 10] [mg/mL]	Cmax [5] [ng/mL]	half-life [5] [h]	Cmax [6] [ng/mL]	half-life [6] [h]	Blood glucose compared to DIO control mice [7]	Day on which significant body weight decrease begins [8] [days]	Daily body weight compared to vehicle DIO control mice [8]	Body fat change [8] [g]	Overall weight change [8] [g]
CCCCCCCCCCCCCCCC(=O)N[C@@H](CCC(=O)N[C@@H](CCC(=O)NCCCC[C@H](NC(=O)[C@H](CCC(N)=O)NC(=O)[C@H](CCCCN)NC(=O)[C@H](CO)NC(=O)[C@H](CC(C)C)NC(=O)[C@H](CC(=O)O)NC(=O)[C@H](CO)NC(=O)[C@@H](NC(=O)[C@H](Cc1ccccc1)NC(=O)[C@@H](NC(=O)CNC(=O)[C@H](CCC(N)=O)NC(=O)C(C)(C)NC(=O)[C@@H](N)Cc1c[nH]cn1)[C@@H](C)O)[C@@H](C)O)C(=O)N[C@@H](CC(=O)O)C(=O)N[C@@H](CCC(=O)O)C(=O)N[C@@H](CCC(N)=O)C(=O)N[C@@H](CCCNC(=N)N)C(=O)N[C@@H](C)C(=O)N[C@@H](CCCCN)C(=O)N[C@@H](CC(C)C)C(=O)N[C@@H](Cc1ccccc1)C(=O)N[C@H](C(=O)N[C@@H](CCC(=O)O)C(=O)N[C@@H](Cc1c[nH]c2ccccc12)C(=O)N[C@@H](CC(C)C)C(=O)NC(C)(C)C(=O)N[C@@H](C)C(=O)NCC(=O)NCC(=O)N1CCC[C@H]1C(=O)N[C@@H](CO)C(=O)N[C@@H](CO)C(=O)NCC(=O)N[C@@H](C)C(=O)N1CCC[C@H]1C(=O)N1CCC[C@H]1C(=O)N1CCC[C@H]1C(=O)N[C@@H](CO)C(N)=O)[C@@H](C)CC)C(=O)O)C(=O)O [SEQ ID NO: 8, H-Aib-Q-G-T-F-T-S-D-L-S-K-Q-K(γE-γE-x53)-D-E-Q-R-A-K-L-F-I-E-W-L-Aib-A-G-G-P-S-S-G-A-P-P-P-S-NH2]	2.3	28.1	2140	> 8	> 8	4360	3.8	476	18.1	significant decrease in blood glucose	5	reduced body weight significantly	-3.81 ± 0.6	-5.38 ± 0.5
CCCCCCCCCCCCCCCC(=O)N[C@@H](CCC(=O)N[C@@H](CCC(=O)NCCCC[C@H](NC(=O)[C@H](CCC(N)=O)NC(=O)[C@H](CCCCN)NC(=O)[C@H](CO)NC(=O)[C@H](CC(C)C)NC(=O)[C@H](CC(=O)O)NC(=O)[C@H](CO)NC(=O)[C@@H](NC(=O)[C@H](Cc1ccccc1)NC(=O)[C@@H](NC(=O)CNC(=O)[C@H](CCC(N)=O)NC(=O)C(C)(C)NC(=O)[C@@H](N)Cc1c[nH]cn1)[C@@H](C)O)[C@@H](C)O)C(=O)N[C@@H](CC(=O)O)C(=O)N[C@@H](CCC(=O)O)C(=O)N[C@@H](CCC(N)=O)C(=O)N[C@@H](CCCNC(=N)N)C(=O)N[C@@H](C)C(=O)N[C@@H](CCCCN)C(=O)N[C@@H](CC(C)C)C(=O)N[C@@H](Cc1ccccc1)C(=O)N[C@H](C(=O)N[C@@H](CCC(=O)O)C(=O)N[C@@H](Cc1c[nH]c2ccccc12)C(=O)N[C@@H](CC(C)C)C(=O)NC(C)(C)C(=O)N[C@@H](C)C(=O)N[C@H](C)C(=O)NCC(=O)N1CCC[C@H]1C(=O)N[C@@H](CO)C(=O)N[C@@H](CO)C(=O)NCC(=O)N[C@@H](C)C(=O)N1CCC[C@H]1C(=O)N1CCC[C@H]1C(=O)N1CCC[C@H]1C(=O)N[C@@H](CO)C(N)=O)[C@@H](C)CC)C(=O)O)C(=O)O [SEQ ID NO: 7, H-Aib-Q-G-T-F-T-S-D-L-S-K-Q-K(γE-γE-x53)-D-E-Q-R-A-K-L-F-I-E-W-L-Aib-A-dAla-G-P-S-S-G-A-P-P-P-S-NH2]	3.4	101	7620	> 8	> 8	5510	3.1	667	29	significant decrease in blood glucose	7	statistically significant decrease	-3.73 ± 0.8	-5.49 ± 0.9
